The values that follow come from BindingDB's records for doi:10.1021/acs.jmedchem.9b00846 (2019).

The nature of assay [1]: Binding affinity to cereblon in human MDA-MB-231 cells assessed as reduction in cell growth inhibition measured after 4 days in presence of 100 uM of lenalidomide.
A short description of assay [2]: Binding affinity to cereblon in human RV4:11 cells expressing wild type p53 assessed as reduction in cell growth inhibition measured after 4 days in presence of 10 uM lenalidomide.
A short description of assay [3]: Binding affinity to cereblon in human RV4:11 cells expressing wild type p53 assessed as reduction in cell growth inhibition measured after 4 days in presence of 100 uM lenalidomide.
Assay [4] can be described thus: Binding affinity to cereblon in human RV4:11/IRMI-2 cells harboring p53 hotspot mutation Y236H/R249G assessed as reduction in cell growth inhibition measured after 4 days in presence of 30 uM lenalidomide.
Assay [5] is described as follows: Binding affinity to cereblon in human RV4:11/IRMI-2 cells harboring p53 hotspot mutation Y236H/R249G assessed as reduction in cell growth inhibition measured after 4 days in presence of 100 uM lenalidomide.
Assay [6] is described as follows: Binding affinity to cereblon in human MDA-MB-231 cells assessed as reduction in cell growth inhibition measured after 4 days in presence of 10 uM of lenalidomide.
Assay [7] is described as follows: Binding affinity to cereblon in human RV4:11 cells expressing wild type p53 assessed as reduction in cell growth inhibition measured after 4 days in presence of 30 uM lenalidomide.
A short description of assay [8]: Binding affinity to cereblon in human MDA-MB-231 cells assessed as reduction in cell growth inhibition measured after 4 days in presence of 30 uM of lenalidomide.
Assay [9] is described as follows: Binding affinity to cereblon in human MDA-MB-468 cells assessed as reduction in cell growth inhibition measured after 4 days in presence of 30 uM lenalidomide.
Assay [10] can be described thus: Binding affinity to cereblon in human RV4:11/IRMI-2 cells harboring p53 hotspot mutation Y236H/R249G assessed as reduction in cell growth inhibition measured after 4 days in presence of 10 uM lenalidomide.
Assay [11] is described as follows: Binding affinity to cereblon in human RV4:11/IRMI-2 cells harboring p53 hotspot mutation Y236H/R249G assessed as cell growth inhibition measured after 4 days.
Assay [12] is described as follows: Binding affinity to cereblon in human RV4:11 cells expressing wild type p53 assessed as cell growth inhibition measured after 4 days.
A short description of assay [13]: Binding affinity to cereblon in human MDA-MB-468 cells assessed as reduction in cell growth inhibition measured after 4 days in presence of 10 uM lenalidomide.
A short description of assay [14]: Binding affinity to cereblon in human MDA-MB-468 cells assessed as reduction in cell growth inhibition measured after 4 days in presence of 100 uM lenalidomide.
Assay [15] can be described thus: Binding affinity to cereblon in human MDA-MB-231 cells assessed as cell growth inhibition measured after 4 days.
The nature of assay [16]: Binding affinity to cereblon in human MDA-MB-468 cells assessed as cell growth inhibition measured after 4 days.

Consider `O=C1CCC(N2Cc3c(CCCCCNC(=O)[C@@H]4NC5(CCCCC5)[C@@]5(C(=O)Nc6cc(Cl)ccc65)[C@H]4c4cccc(Cl)c4F)cccc3C2=O)C(=O)N1` (stereo partly specified), for which the IC50 in assay [1] was determined as 2140 nM; in assay [2], 96 nM; in assay [3], 496 nM; in [4] it was 400 nM; in [5] it was 982 nM; in assay [6], 623 nM. Also, the IC50 in assay [7] was 211 nM; in assay [8], 1370 nM; in assay [9], 964 nM; in assay [10], 168 nM; in [11], 3.1 nM; in assay [12] it was 2 nM. For the same compound, the results for the IC50 in assay [13] and in [14] were 419 nM and 2070 nM, respectively.

In the case of `O=C1CCC(N2Cc3c(CCCCCNC(=O)c4ccc(NC(=O)[C@@H]5NC6(CCCCC6)[C@@]6(C(=O)Nc7cc(Cl)ccc76)[C@H]5c5cccc(Cl)c5F)cc4)cccc3C2=O)C(=O)N1` (stereo partly specified), the half-inhibitory concentration (IC50) was greater than 10000 nM in assay [15], greater than 10000 nM in assay [16], greater than 10000 nM in [11] and 5.5 nM in assay [12].

Take `CNC(=O)[C@@H]1NC2(CCCCC2)[C@@]2(C(=O)Nc3cc(Cl)ccc32)[C@H]1c1cccc(Cl)c1F` [US8629141, 21]: the IC50 in assay [15], in [16] and in assay [11] was greater than 10000 nM each time.

One may read the IC50 as the point on the concentration scale where inhibition reaches its midpoint.
